Test results from PubChem BioAssay (NCI).
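Cells were grown in 96-well plates and exposed to each compound for 48 hours at five concentrations; endpoints were interpolated linearly between bracketing concentrations, or set to the highest concentration if not reached. TGI: concentration producing complete growth inhibition.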

Tests used:
Assay in all cases: NCI anticancer screen, dose series, 48 h
ACHN renal = system: ACHN renal
OVCAR-8 ovarian = system: OVCAR-8 ovarian
EKVX NSCLC = system: EKVX NSCLC
CCRF-CEM leukemia = system: CCRF-CEM leukemia
SF-295 CNS = system: SF-295 CNS
UACC-62 melanoma = system: UACC-62 melanoma
HCC-2998 colon = system: HCC-2998 colon
SW-620 colon = system: SW-620 colon
HL-60(TB) leukemia = system: HL-60(TB) leukemia
NCI/ADR-RES ovarian = system: NCI/ADR-RES ovarian
RPMI-8226 leukemia = system: RPMI-8226 leukemia
K-562 leukemia = system: K-562 leukemia
A549 NSCLC = system: A549 NSCLC
SK-MEL-2 melanoma = system: SK-MEL-2 melanoma
HCT-116 colon = system: HCT-116 colon
TK-10 renal = system: TK-10 renal
HCT-15 colon = system: HCT-15 colon
UO-31 renal = system: UO-31 renal
HT29 colon = system: HT29 colon
OVCAR-3 ovarian = system: OVCAR-3 ovarian
786-0 renal = system: 786-0 renal
BT-549 breast = system: BT-549 breast
LOX IMVI melanoma = system: LOX IMVI melanoma
OVCAR-5 ovarian = system: OVCAR-5 ovarian
SK-MEL-5 melanoma = system: SK-MEL-5 melanoma
SF-539 CNS = system: SF-539 CNS
KM12 colon = system: KM12 colon
SNB-19 CNS = system: SNB-19 CNS
MOLT-4 leukemia = system: MOLT-4 leukemia
U251 CNS = system: U251 CNS
PC-3 prostate = system: PC-3 prostate
MCF7 breast = system: MCF7 breast
HS 578T breast = system: HS 578T breast
HOP-92 NSCLC = system: HOP-92 NSCLC
SK-OV-3 ovarian = system: SK-OV-3 ovarian
COLO 205 colon = system: COLO 205 colon
M14 melanoma = system: M14 melanoma
NCI-H23 lung = system: NCI-H23 lung
A498 renal = system: A498 renal
DU-145 prostate = system: DU-145 prostate
MDA-MB-435 = system: MDA-MB-435
NCI-H460 lung = system: NCI-H460 lung
UACC-257 melanoma = system: UACC-257 melanoma
NCI-H522 lung = system: NCI-H522 lung
RXF 393 renal = system: RXF 393 renal
CAKI-1 renal = system: CAKI-1 renal
MDA-N = system: MDA-N
HOP-62 NSCLC = system: HOP-62 NSCLC
T-47D breast = system: T-47D breast
IGROV1 ovarian = system: IGROV1 ovarian
OVCAR-4 ovarian = system: OVCAR-4 ovarian
SF-268 CNS = system: SF-268 CNS
SK-MEL-28 melanoma = system: SK-MEL-28 melanoma
MALME-3M melanoma = system: MALME-3M melanoma
MDA-MB-231 breast = system: MDA-MB-231 breast
SN12C renal = system: SN12C renal
SNB-75 CNS = system: SNB-75 CNS
NCI-H226 lung = system: NCI-H226 lung
SR leukemia = system: SR leukemia

Measured: TGI

C=CCC1=CC2(OC)C(=O)C(OC)(OC)C1C1C(OC)(OC)C(=O)C(OC)=CC12CC=C (stereo not drawn)
not listed: NCI-H226 lung | SR leukemia
> 100 µM: all other assays above

Cc1ccccc1NC(=O)C(=O)Cc1cnc2ccccc2n1
not listed: RXF 393 renal | HOP-62 NSCLC | SNB-75 CNS | SR leukemia
> 100 µM: all other assays above

O=C(N/C(=C/c1ccc(Cl)cc1)c1nc2ccccc2c(=O)n1Nc1ccc([N+](=O)[O-])cc1[N+](=O)[O-])c1ccccc1
not listed: ACHN renal | EKVX NSCLC | HL-60(TB) leukemia | RPMI-8226 leukemia | SK-MEL-2 melanoma | A498 renal | DU-145 prostate | RXF 393 renal | SF-268 CNS
> 100 µM: all other assays above

O=C(/C=C/c1ccc(F)c(F)c1)OCCc1ccccc1
not listed: HOP-92 NSCLC | A498 renal | RXF 393 renal
> 100 µM: all other assays above
